Where a name gives a salt, the structure may show the parent alone.
Key:
[1] = target: T1, MFP-2 (Rattus norvegicus, UniProt P97852); test: Binding experiments: compound-immobilized resins with rat brain lysate, SDS-PAGE and MALDI-TOF identification; settings: first vs second binding experiment with fresh resin, SDS gel
T1 construct: The supernatant thus obtained was used as the lysate; from tissue; host or cells: rat brain
T1 sequence (P97852 1-735): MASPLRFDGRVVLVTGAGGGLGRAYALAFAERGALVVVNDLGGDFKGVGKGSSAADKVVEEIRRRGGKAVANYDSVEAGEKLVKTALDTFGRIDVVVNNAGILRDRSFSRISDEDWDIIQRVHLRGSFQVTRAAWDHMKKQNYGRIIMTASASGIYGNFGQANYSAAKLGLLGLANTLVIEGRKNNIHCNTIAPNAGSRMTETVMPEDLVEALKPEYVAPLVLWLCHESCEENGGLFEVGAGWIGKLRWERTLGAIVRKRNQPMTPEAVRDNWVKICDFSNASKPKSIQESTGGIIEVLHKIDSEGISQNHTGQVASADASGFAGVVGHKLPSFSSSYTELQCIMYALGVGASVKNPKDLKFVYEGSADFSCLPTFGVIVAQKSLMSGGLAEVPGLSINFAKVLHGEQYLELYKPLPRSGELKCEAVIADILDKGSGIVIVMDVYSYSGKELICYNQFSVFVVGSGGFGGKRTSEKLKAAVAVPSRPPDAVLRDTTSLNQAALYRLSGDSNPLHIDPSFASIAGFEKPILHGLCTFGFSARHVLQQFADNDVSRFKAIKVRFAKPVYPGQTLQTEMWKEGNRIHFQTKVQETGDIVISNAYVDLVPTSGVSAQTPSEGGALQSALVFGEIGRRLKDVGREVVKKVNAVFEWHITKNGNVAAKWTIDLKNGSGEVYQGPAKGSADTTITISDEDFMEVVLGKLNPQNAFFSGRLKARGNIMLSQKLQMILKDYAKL
Description: The rat brain (2.4 g) was mixed in a mixed solution A (25 mM Tris-HCl pH 8.0, 0.5% Tween 20, 300 μM DCC (24 ml; N,N-diethyldithiocarbamate sodium)) and prepared as a homogenate, which was then centrifuged at 9,000 rpm for 10 minutes. The centrifugal supernatant was collected and further centrifuged at 50,000 rpm for 30 minutes. The supernatant thus obtained was used as the lysate. Note that all experiments were performed at 4° C. or on ice.
Binding experiments were performed using the immobilizing resins with each test compound immobilized thereon, prepared in Examples 1 to 2, and the rat brain lysate prepared in Example 3(1), per the procedures shown below.
Each resin (10 μl) and lysate (1 ml) were gently shaken at 4° C. for about 1 hour. Thereafter, centrifugal operation was performed, and each supernatant was collected carefully. Then, each supernatant was again mixed with a fresh compound-bound resin (10 μl). At this time, the separated compound-bound resin was gently stored at 4° C. as the resin of the first binding experiment. After the mixture was gently stirred for about 1 hour, centrifugal operation was performed, and the supernatant was removed. […] The sample solution thus obtained was separated using a commercially available SDS gel (BioRad readyGel J, 10% SDS, cat. NO=161-J341), and the SDS gel was analyzed (FIG. 2). […]

[2] = target: T2, recombinant MFP-2 (Homo sapiens, UniProt P51659); test: Measurement of Kd value between MFP-2 and Intal using Biacore; type: binding; settings: Biacore 3000; Intal-immobilized gold chip; MFP-2 25, 12.5 and 6.25 nM; global fitting
T2 construct: His-tag (N); made in house; host or cells: E. coli (pDEST17, GATEWAY system)
T2 sequence (P51659 1-736): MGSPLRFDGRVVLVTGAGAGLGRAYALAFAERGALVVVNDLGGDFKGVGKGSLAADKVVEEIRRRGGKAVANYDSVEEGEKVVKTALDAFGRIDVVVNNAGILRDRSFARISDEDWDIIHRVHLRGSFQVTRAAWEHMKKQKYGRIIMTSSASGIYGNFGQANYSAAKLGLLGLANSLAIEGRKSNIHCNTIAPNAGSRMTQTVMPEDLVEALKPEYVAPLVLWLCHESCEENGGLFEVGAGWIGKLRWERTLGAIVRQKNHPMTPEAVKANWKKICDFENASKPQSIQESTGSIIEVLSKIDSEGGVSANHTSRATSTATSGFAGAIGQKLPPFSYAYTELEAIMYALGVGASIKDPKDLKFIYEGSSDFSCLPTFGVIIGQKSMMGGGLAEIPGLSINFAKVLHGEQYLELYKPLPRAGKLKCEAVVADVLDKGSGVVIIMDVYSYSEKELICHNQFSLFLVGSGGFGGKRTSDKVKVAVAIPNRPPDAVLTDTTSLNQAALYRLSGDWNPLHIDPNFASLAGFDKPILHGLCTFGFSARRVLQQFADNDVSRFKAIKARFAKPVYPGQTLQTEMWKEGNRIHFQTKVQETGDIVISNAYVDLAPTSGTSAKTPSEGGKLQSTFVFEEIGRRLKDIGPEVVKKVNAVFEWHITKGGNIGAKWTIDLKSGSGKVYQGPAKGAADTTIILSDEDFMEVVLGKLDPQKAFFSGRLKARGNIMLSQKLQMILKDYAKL
Description: The SIA kit Au from Biacore Company (#BR-1004-05) was immersed in Piranha solution (25% H2O2, 75% H2SO4) in a glass dish, and washed with shaking for 3 hours. Next, this chip was washed with Milli-Q Water and ethanol, and allowed to stand overnight as immersed in an ethanol solution (1.5 mM) of 11-amino-1-undecanethiol hydrochloride (Dojindo, #A423). After this was washed with N-methylpyrrolidone (NMP), it was placed in an NMP solution containing N-Fmoc-amido-dPEG4™-acid (50 mM), PyBop (50 mM) and diisopropylethylamine (Pr2Net; 100 mM) and shaken for 16 hours to cause the reaction. After the mixture was washed with NMP, the reaction was allowed to proceed in an acetonitrile (MeCN) solution containing acetic acid (10 mM), HOBt (10 mM) and WSCI (water-soluble carbodiimide; 10 mM) for 5.5 hours. […]
An entry vector was prepared using the GATEWAY system from Invitrogen Company, and recombinant MFP-2 was expressed as a protein with N-terminal His-tag using an E. coli expression system (pDEST17). […]
The Kd value was measured using Biacore 3000. […]
After data were measured, differences from the control were determined using analytical software (BIACORE Company, BIA evaluation ver 4.1) and analyzed by global fitting to calculate the Kd value. As a result, the value was determined to be 0.64 nM.

SMILES | binding of MFP-2 to the compound-immobilized resin [1] | Kd [2]
O=C(O)c1cc(=O)c2c(OCC(O)COc3cccc4oc(C(=O)O)cc(=O)c34)cccc2o1 [Intal, disodium salt of 1,3-bis(2-carboxychromon-5-yloxy)-2-hydroxypropane] | specific binding | 640 pM
O=C(Cn1c(=O)sc2ccc(Cl)cc21)N1CCN(CCO)CC1 [tiaramide] | specific binding | –

— patent publication US20090239916A1, “NOVEL DRUG DISCOVERY TARGET AND MEDICINE ACTING ON THE SAME” (Reverse Proteomics Research Institute Co., Ltd, priority 2004, published 2009)
